{"source": "paper PMC5218480", "about": "(PLoS ONE, 2017)", "test_system": "MV-4-11 cells", "assay": "Gene expression microarray analysis (Affymetrix PrimeView) and GSEA", "format": "cell-based, human", "parameters": "RFU PODN (11730768_x_at) / Fold change /veh PODN (11730768_x_at) / RFU LINC00158 (11744669_a_at) / Fold change /veh LINC00158 (11744669_a_at) / RFU DUSP10 (11751237_a_at) / Fold change /veh DUSP10 (11751237_a_at) / RFU ID3 (11757404_x_at) / Fold change /veh ID3 (11757404_x_at) / RFU PLEKHG5 (11737974_s_at) / Fold change /veh PLEKHG5 (11737974_s_at) / RFU LRRC4B (11730491_at) / Fold change /veh LRRC4B (11730491_at) / RFU GIMAP4 (11747438_a_at) / Fold change /veh GIMAP4 (11747438_a_at) / RFU KRT8 (11758183_x_at) / Fold change /veh KRT8 (11758183_x_at) / RFU CNN1 (11734310_a_at) / Fold change /veh CNN1 (11734310_a_at) / RFU VPS37D (11726825_at) / Fold change /veh VPS37D (11726825_at) / RFU C10orf10 (11716522_x_at) / Fold change /veh C10orf10 (11716522_x_at) / RFU KIR2DL2 /// KIR2DL4 /// KIR2DL5A /// KIR2DL5B /// KIR2DS1 /// KIR2DS2 /// KIR2DS3 /// KIR2DS4 /// KIR3DL3 /// KIR3DL3 /// KIR3DS1 (11738374_at) / Fold change /veh KIR2DL2 /// KIR2DL4 /// KIR2DL5A /// KIR2DL5B /// KIR2DS1 /// KIR2DS2 /// KIR2DS3 /// KIR2DS4 /// KIR3DL3 /// KIR3DL3 /// KIR3DS1 (11738374_at) / RFU C1QL1 (11718748_at) / Fold change /veh C1QL1 (11718748_at) / RFU TMPRSS4 (11747572_a_at) / Fold change /veh TMPRSS4 (11747572_a_at) / RFU HAMP (11756126_x_at) / Fold change /veh HAMP (11756126_x_at) / RFU RNFT2 (11725882_a_at) / Fold change /veh RNFT2 (11725882_a_at) / RFU NR4A2 (11747474_a_at) / Fold change /veh NR4A2 (11747474_a_at) / RFU ABCC12 (11746883_a_at) / Fold change /veh ABCC12 (11746883_a_at) / RFU TMEM136 (11760407_x_at) / Fold change /veh TMEM136 (11760407_x_at) / RFU CLDN22 /// WWC2 (11732394_at) / Fold change /veh CLDN22 /// WWC2 (11732394_at) / RFU HLA-DPB1 (11760878_x_at) / Fold change /veh HLA-DPB1 (11760878_x_at) / RFU SPINT1 (11716480_a_at) / Fold change /veh SPINT1 (11716480_a_at) / RFU GAP43 (11754022_s_at) / Fold change /veh GAP43 (11754022_s_at) / RFU A4GNT (11735810_at) / Fold change /veh A4GNT (11735810_at) / RFU PRB3 (11715151_x_at) / Fold change /veh PRB3 (11715151_x_at) / RFU TUBB4B (11761932_at) / Fold change /veh TUBB4B (11761932_at) / RFU CAPN14 (11732068_a_at) / Fold change /veh CAPN14 (11732068_a_at) / RFU TMCC2 (11721928_a_at) / Fold change /veh TMCC2 (11721928_a_at) / RFU IRGQ (11745062_a_at) / Fold change /veh IRGQ (11745062_a_at) / RFU FAM174B (11720279_a_at) / Fold change /veh FAM174B (11720279_a_at) / RFU TMPRSS4 (11748680_a_at) / Fold change /veh TMPRSS4 (11748680_a_at) / RFU FAM212B (11763350_a_at) / Fold change /veh FAM212B (11763350_a_at) / RFU PLEKHG5 (11743358_a_at) / Fold change /veh PLEKHG5 (11743358_a_at) / RFU ZSCAN30 (11745921_a_at) / Fold change /veh ZSCAN30 (11745921_a_at) / RFU CMKLR1 (11741424_a_at) / Fold change /veh CMKLR1 (11741424_a_at) / RFU LOC101060620 /// MAPK8IP1 (11723275_at) / Fold change /veh LOC101060620 /// MAPK8IP1 (11723275_at) / RFU SPTSSB (11747773_x_at) / Fold change /veh SPTSSB (11747773_x_at) / RFU PRSS12 (11739890_at) / Fold change /veh PRSS12 (11739890_at) / RFU BIN1 (11741810_x_at) / Fold change /veh BIN1 (11741810_x_at) / RFU WNT11 (11732464_a_at) / Fold change /veh WNT11 (11732464_a_at) / RFU C10orf10 (11716521_a_at) / Fold change /veh C10orf10 (11716521_a_at) / RFU C5orf56 (11738089_at) / Fold change /veh C5orf56 (11738089_at) / RFU CYB561 (11721691_x_at) / Fold change /veh CYB561 (11721691_x_at) / RFU ANKRD19P (11752326_a_at) / Fold change /veh ANKRD19P (11752326_a_at) / RFU OR2T12 /// OR2T33 /// OR2T8 (11738714_s_at) / Fold change /veh OR2T12 /// OR2T33 /// OR2T8 (11738714_s_at) / RFU VCAN (11748164_a_at) / Fold change /veh VCAN (11748164_a_at) / RFU JSRP1 (11732532_at) / Fold change /veh JSRP1 (11732532_at) / RFU KRTAP10-11 (11738290_x_at) / Fold change /veh KRTAP10-11 (11738290_x_at) / RFU MYO3A (11730013_a_at) / Fold change /veh MYO3A (11730013_a_at) / RFU EBF3 (11725865_a_at) / Fold change /veh EBF3 (11725865_a_at) / RFU CAMK2N1 (11719241_x_at) / Fold change /veh CAMK2N1 (11719241_x_at) / RFU C5orf56 (11738088_a_at) / Fold change /veh C5orf56 (11738088_a_at) / RFU OLFML3 (11715873_a_at) / Fold change /veh OLFML3 (11715873_a_at) / RFU LOC100653217 /// NTM (11731650_a_at) / Fold change /veh LOC100653217 /// NTM (11731650_a_at) / RFU MAPK11 (11762145_a_at) / Fold change /veh MAPK11 (11762145_a_at) / RFU FIZ1 (11724087_x_at) / Fold change /veh FIZ1 (11724087_x_at) / RFU OASL (11726364_x_at) / Fold change /veh OASL (11726364_x_at) / RFU SOX15 (11748057_x_at) / Fold change /veh SOX15 (11748057_x_at) / RFU CD79A (11719716_a_at) / Fold change /veh CD79A (11719716_a_at) / RFU HIST1H1D (11736915_at) / Fold change /veh HIST1H1D (11736915_at) / RFU CASKIN2 (11723855_a_at) / Fold change /veh CASKIN2 (11723855_a_at) / RFU LOC730098 (11760151_x_at) / Fold change /veh LOC730098 (11760151_x_at) / RFU OR4N2 (11742367_at) / Fold change /veh OR4N2 (11742367_at) / RFU PRRT2 (11749266_a_at) / Fold change /veh PRRT2 (11749266_a_at) / RFU SNX32 (11753110_a_at) / Fold change /veh SNX32 (11753110_a_at) / RFU CDHR5 (11726645_a_at) / Fold change /veh CDHR5 (11726645_a_at) / RFU RCAN1 (11760418_a_at) / Fold change /veh RCAN1 (11760418_a_at) / RFU FAM167A (11723789_a_at) / Fold change /veh FAM167A (11723789_a_at) / RFU FAM26E (11764081_at) / Fold change /veh FAM26E (11764081_at) / RFU ISYNA1 (11749810_s_at) / Fold change /veh ISYNA1 (11749810_s_at) / RFU ACY1 (11761880_at) / Fold change /veh ACY1 (11761880_at) / RFU 11764098_at / Fold change /veh 11764098_at / RFU SAMD14 (11745864_x_at) / Fold change /veh SAMD14 (11745864_x_at) / RFU NPB (11741838_a_at) / Fold change /veh NPB (11741838_a_at) / RFU TMPRSS6 (11731388_a_at) / Fold change /veh TMPRSS6 (11731388_a_at) / RFU KRTAP10-2 (11738614_at) / Fold change /veh KRTAP10-2 (11738614_at) / RFU ARHGAP8 /// PRR5-ARHGAP8 (11727945_x_at) / Fold change /veh ARHGAP8 /// PRR5-ARHGAP8 (11727945_x_at) / RFU KRTAP5-7 /// NADSYN1 (11734609_at) / Fold change /veh KRTAP5-7 /// NADSYN1 (11734609_at) / RFU RASL12 (11751679_a_at) / Fold change /veh RASL12 (11751679_a_at) / RFU CDKN2B (11736163_a_at) / Fold change /veh CDKN2B (11736163_a_at) / RFU PRF1 (11729649_at) / Fold change /veh PRF1 (11729649_at) / RFU, ZNF638 /// ZNF638-IT1 / Fold change vs veh, ZNF638 /// ZNF638-IT1 / RFU, PANK3 / Fold change vs veh, PANK3 / RFU, SH3YL1 / Fold change vs veh, SH3YL1 / RFU, ZEB2 / Fold change vs veh, ZEB2 / RFU, NRIP1 / Fold change vs veh, NRIP1 / RFU, PTTG1IP / Fold change vs veh, PTTG1IP / RFU, CAPN2 / Fold change vs veh, CAPN2 / RFU, MED14 / Fold change vs veh, MED14 / RFU, SNORA58 / Fold change vs veh, SNORA58 / RFU, C1orf63 / Fold change vs veh, C1orf63 / RFU, LRRFIP1 / Fold change vs veh, LRRFIP1 / RFU, NDUFAF7 / Fold change vs veh, NDUFAF7 / RFU, SLC12A2 / Fold change vs veh, SLC12A2 / RFU, IBTK / Fold change vs veh, IBTK / RFU, ESF1 / Fold change vs veh, ESF1 / Fold change vs veh, TMEM50B / RFU, TAOK1 / Fold change vs veh, TAOK1 / RFU, ACBD3 / Fold change vs veh, ACBD3 / RFU, TMA16 / Fold change vs veh, TMA16 / RFU, RWDD3 / Fold change vs veh, RWDD3 / RFU, BCAT1 / Fold change vs veh, BCAT1 / RFU, EDEM3 / Fold change vs veh, EDEM3 / RFU, TMEM33 / Fold change vs veh, TMEM33 / RFU, WDR75 / Fold change vs veh, WDR75 / RFU, AHCTF1 / Fold change vs veh, AHCTF1 / RFU, TFRC / Fold change vs veh, TFRC / RFU, ZDHHC17 / Fold change vs veh, ZDHHC17 / RFU, NOM1 / Fold change vs veh, NOM1 / RFU, ARL8B / Fold change vs veh, ARL8B / RFU, ZBTB11 / Fold change vs veh, ZBTB11 / RFU, TAMM41 / Fold change vs veh, TAMM41 / RFU, KIAA1704 /// LOC100996395 / Fold change vs veh, KIAA1704 /// LOC100996395 / RFU, ING1 / Fold change vs veh, ING1 / RFU, TRMT61B / Fold change vs veh, TRMT61B / RFU, FUBP3 / Fold change vs veh, FUBP3 / RFU, TP53 / Fold change vs veh, TP53 / RFU, TNKS2 / Fold change vs veh, TNKS2 / RFU, ZFP14 / Fold change vs veh, ZFP14 / RFU, ACTR2 / Fold change vs veh, ACTR2 / RFU, PPP3R1 / Fold change vs veh, PPP3R1 / RFU, PIK3R1 / Fold change vs veh, PIK3R1 / RFU, HNRNPA1 / Fold change vs veh, HNRNPA1 / RFU, RNF170 / Fold change vs veh, RNF170 / RFU, ZNF28 / Fold change vs veh, ZNF28 / RFU, RNGTT / Fold change vs veh, RNGTT / RFU, OGT / Fold change vs veh, OGT / RFU, BRD1 / Fold change vs veh, BRD1 / RFU, MARS / Fold change vs veh, MARS / RFU, ZNF655 / Fold change vs veh, ZNF655 / RFU, FAHD1 / Fold change vs veh, FAHD1 / RFU, BDP1 / Fold change vs veh, BDP1 / RFU, LRRCC1 / Fold change vs veh, LRRCC1 / RFU, ARID1A / Fold change vs veh, ARID1A / RFU, ZNF146 / Fold change vs veh, ZNF146 / RFU, ZNF330 / Fold change vs veh, ZNF330 / RFU, GPN3 / Fold change vs veh, GPN3 / RFU, C9orf123 / Fold change vs veh, C9orf123 / RFU, N4BP2L2 / Fold change vs veh, N4BP2L2 / RFU, ARFIP1 / Fold change vs veh, ARFIP1 / RFU, FAM179B / Fold change vs veh, FAM179B / RFU, BCL10 / Fold change vs veh, BCL10 / RFU, UHRF1BP1L / Fold change vs veh, UHRF1BP1L / RFU, BET1 / Fold change vs veh, BET1 / RFU, CNOT2 / Fold change vs veh, CNOT2 / RFU, ZNF268 / Fold change vs veh, ZNF268 / Fold change vs veh, ZNF507 / RFU, DGCR2 / Fold change vs veh, DGCR2 / RFU, WDSUB1 / Fold change vs veh, WDSUB1 / Fold change vs veh, HSP90B1 /// MIR3652 / RFU, ADSS / Fold change vs veh, ADSS / RFU, GK / Fold change vs veh, GK / RFU, ZNF148 / Fold change vs veh, ZNF148 / RFU, TAF9 / Fold change vs veh, TAF9 / RFU, SLC1A5 / Fold change vs veh, SLC1A5 / RFU, SLMO2 / Fold change vs veh, SLMO2 / RFU, ABCC4 / Fold change vs veh, ABCC4 / RFU, LOC101060439 /// RAP1B / Fold change vs veh, LOC101060439 /// RAP1B / RFU, RFX7 / Fold change vs veh, RFX7 / RFU, GTPBP10 / Fold change vs veh, GTPBP10 / RFU, CNEP1R1 / Fold change vs veh, CNEP1R1 / RFU, BIVM-ERCC5 /// ERCC5 / Fold change vs veh, BIVM-ERCC5 /// ERCC5 / RFU, ILF3 / Fold change vs veh, ILF3 / RFU 11762660_at / Fold change /veh 11762660_at / RFU VCAN (11757783_s_at) / Fold change /veh VCAN (11757783_s_at) / RFU DDX43 (11728927_at) / Fold change /veh DDX43 (11728927_at) / RFU KRT8 (11758188_x_at) / Fold change /veh KRT8 (11758188_x_at) / RFU NKD1 (11759106_at) / Fold change /veh NKD1 (11759106_at) / RFU SRD5A1 (11742802_a_at) / Fold change /veh SRD5A1 (11742802_a_at) / RFU TPSAB1 /// TPSB2 (11721975_s_at) / Fold change /veh TPSAB1 /// TPSB2 (11721975_s_at) / RFU GSTM3 (11746129_a_at) / Fold change /veh GSTM3 (11746129_a_at) / RFU IL23R (11737362_x_at) / Fold change /veh IL23R (11737362_x_at) / RFU TMEM51 (11727254_a_at) / Fold change /veh TMEM51 (11727254_a_at) / RFU PIWIL2 (11732686_x_at) / Fold change /veh PIWIL2 (11732686_x_at) / RFU ORM1 (11744905_x_at) / Fold change /veh ORM1 (11744905_x_at) / RFU CCDC152 (11743942_at) / Fold change /veh CCDC152 (11743942_at) / RFU ECM1 (11717891_a_at) / Fold change /veh ECM1 (11717891_a_at) / RFU IL23R (11748794_a_at) / Fold change /veh IL23R (11748794_a_at) / RFU TNFAIP8L3 (11732012_x_at) / Fold change /veh TNFAIP8L3 (11732012_x_at) / RFU MBOAT4 (11741988_at) / Fold change /veh MBOAT4 (11741988_at) / RFU 11764193_at / Fold change /veh 11764193_at / RFU TMEM53 (11763286_at) / Fold change /veh TMEM53 (11763286_at) / RFU MAGEB2 (11727129_at) / Fold change /veh MAGEB2 (11727129_at) / RFU TMEM200A (11744735_a_at) / Fold change /veh TMEM200A (11744735_a_at) / RFU CCDC152 (11751479_a_at) / Fold change /veh CCDC152 (11751479_a_at) / RFU FAM211A (11726209_a_at) / Fold change /veh FAM211A (11726209_a_at) / RFU RGS16 (11746705_a_at) / Fold change /veh RGS16 (11746705_a_at) / RFU VCAN (11755009_s_at) / Fold change /veh VCAN (11755009_s_at) / RFU RHOB (11743442_s_at) / Fold change /veh RHOB (11743442_s_at) / RFU RGS16 (11720943_a_at) / Fold change /veh RGS16 (11720943_a_at) / RFU RGS16 (11720944_at) / Fold change /veh RGS16 (11720944_at) / RFU, VPS4B / Fold change vs veh, VPS4B / RFU, CREB1 / Fold change vs veh, CREB1 / RFU, DNAJC13 / Fold change vs veh, DNAJC13 / RFU, GNAQ / Fold change vs veh, GNAQ / RFU, CDK5R1 / Fold change vs veh, CDK5R1 / RFU, ZRANB3 / Fold change vs veh, ZRANB3 / RFU, CUL4A / Fold change vs veh, CUL4A / RFU, CCNY / Fold change vs veh, CCNY / RFU, UFL1 / Fold change vs veh, UFL1 / RFU, COG3 / Fold change vs veh, COG3 / RFU, DIAPH2 / Fold change vs veh, DIAPH2 / RFU, SKA2 / Fold change vs veh, SKA2 / RFU, AFF3 / Fold change vs veh, AFF3 / RFU, LMF1 / Fold change vs veh, LMF1 / RFU, IPO11 / Fold change vs veh, IPO11 / RFU, DFFB / Fold change vs veh, DFFB / RFU, FOXP1 / Fold change vs veh, FOXP1 / RFU, CARD8 / Fold change vs veh, CARD8 / RFU, STRN3 / Fold change vs veh, STRN3 / RFU, ADK / Fold change vs veh, ADK / RFU, RASSF2 / Fold change vs veh, RASSF2 / RFU, WIPF1 / Fold change vs veh, WIPF1 / RFU, LARP1B / Fold change vs veh, LARP1B / RFU, RASA1 / Fold change vs veh, RASA1 / RFU, RB1 / Fold change vs veh, RB1 / RFU, PPFIA1 / Fold change vs veh, PPFIA1 / RFU, MAT2A / Fold change vs veh, MAT2A / RFU, CCT5 / Fold change vs veh, CCT5 / RFU, WDR92 / Fold change vs veh, WDR92 / RFU, CUX1 / Fold change vs veh, CUX1 / RFU, TTC7A / Fold change vs veh, TTC7A / RFU, TMEM135 / Fold change vs veh, TMEM135 / RFU, DEPTOR / Fold change vs veh, DEPTOR / RFU, CPM / Fold change vs veh, CPM / RFU, DNAJB6 / Fold change vs veh, DNAJB6 / RFU, CACNA2D3 / Fold change vs veh, CACNA2D3 / RFU, DTX4 / Fold change vs veh, DTX4 / RFU, TFCP2 / Fold change vs veh, TFCP2 / RFU, GMCL1 /// GMCL1P1 / Fold change vs veh, GMCL1 /// GMCL1P1 / RFU, AEBP2 / Fold change vs veh, AEBP2 / RFU, SNHG1 /// SNORD22 /// SNORD25 /// SNORD26 /// SNORD27 /// SNORD28 /// SNORD29 /// SNORD31 / Fold change vs veh, SNHG1 /// SNORD22 /// SNORD25 /// SNORD26 /// SNORD27 /// SNORD28 /// SNORD29 /// SNORD31 / Fold change (Aza/veh), C12orf56 (ProbeSet 11735607_a_at) / Fold change (ACY-1035/veh), C12orf56 (ProbeSet 11735607_a_at) / Fold change (Aza/veh), FGFR1OP (ProbeSet 11751329_s_at) / Fold change (ACY-1035/veh), FGFR1OP (ProbeSet 11751329_s_at) / Fold change (Aza/veh), VPS36 (ProbeSet 11739960_a_at) / Fold change (ACY-1035/veh), VPS36 (ProbeSet 11739960_a_at) / RFU SYPL1 (11715823_x_at) / Fold change /veh SYPL1 (11715823_x_at) / RFU IGFBP7 (11715501_s_at) / Fold change /veh IGFBP7 (11715501_s_at) / RFU REEP3 (11722064_at) / Fold change /veh REEP3 (11722064_at) / RFU IGLL1 (11728026_x_at) / Fold change /veh IGLL1 (11728026_x_at): dose or concentration left out as unconfirmed", "conditions": "ProbeSet 11750457_a_at; LIST B"}
{"smiles": "Nc1ccc(-c2cccs2)cc1NC(=O)c1ccc2c(c1)cc(C1CC1)n2CCN1CCOCC1", "note": "[ACY-1035]", "values": [{"measurement": "Fold change vs veh, GTPBP10", "value": 0.84}]}
